Laboratory results as given in EPA's ToxValDB 9.5 (doi:10.2903/j.efsa.2009.332r).

Assays:
[1] = chronic/long-term
[2] = system: Rattus norvegicus; conditions: oral
[3] = system: Daphnia magna; conditions: chronic/long-term; duration: 21 days; mortality
[4] = system: Mus musculus; conditions: acute; oral; mortality
[5] = system: Oncorhynchus mykiss; conditions: chronic/long-term; growth
[6] = system: Apis mellifera; conditions: acute; dermal; mortality
[7] = system: Canidae; conditions: chronic; duration: 1 years; oral; Dog Other; hematological
[8] = system: Anas platyrhynchos; conditions: acute; oral; unspecified; mortality
[9] = system: Colinus virginianus; conditions: for LD50: acute, oral, mortality
[10] = system: Tagia sp.; conditions: acute; duration: 14 days; mortality

## O=C(NC(=O)c1c(F)cccc1F)Nc1ccc(Cl)cc1 [Diflubenzuron]
[1]
  NOEL: 3680 mg/kg-day
[2]; acute, mortality
  LD50: 4640 mg/kg
[2]; subchronic, duration: 13 weeks, hematological
  NOAEL: 11 mg/kg-day
[3]
  NOEC: 4e-05 mg/L
[4]
  LD50: > 4640 mg/kg
[5]
  NOEC: 0.2 mg/L
[6]
  LD50: 0.05 µg/piece
[7]
  NOAEL: 10 mg/kg-day
[8]
  LD50: > 5000 mg/kg
[9]; diet
  LD50: > 1210 mg/kg-day
[9]
  LD50: > 5000 mg/kg
[9]; reproduction developmental
  NOEC: 42.7 mg/kg-day
[10]
  LC50: > 1000 mg/kg
